# Measurements taken from patent publication US9532972B2, “Increasing taxane sensitivity in cancer cells” (UNIVERSITY OF CENTRAL FLORIDA RESEARCH FOUNDATION, INC., priority 2012, dated 2017).
# Legend:
# Assay type in all cases: cell-based
# MDA-MB-231 = assay: Flow cytometry cell cycle analysis (propidium iodide DNA content); conditions: MDA-MB-231 cells, 2 μM docetaxel, 24 hrs
# Protocol: (§1) To confirm the results of the MTS assay, while further elucidating the link between LIMK1 expression and taxane sensitivity, the effects of taxane treatment on cell cycle were analyzed. […] Using flow cytometry to monitor DNA content, the percentages of cells in each phase of the cell cycle including the percentage of cells in the sub-G1 population (FIGS. 2A and B) were determined. […] Although after 24 hrs of treatment, the difference between cells lines became more apparent.
# (§2) Cells were seeded into 60 mm dishes and transfected the following day with one of the previous constructs. […] At each time point, media and cells were collected, washed, and fixed in 70% EtOH at −20° C. for at least 30 mins. Cells were then washed and stained for 30 mins in PBS containing: 2% BSA; 0.1% Pluronic F-68 (Sigma); Propidium Iodide [80 ug/mL] (Sigma); RNase [100 ug/mL]. Data was collected using FACSCalibur and analyzed using Cell Quest and ModFit software.
# P69 = assay: as above; conditions: P69 cells, 2 μM docetaxel, 24 hrs
# Protocol: as §1, §2
# PC-3 = assay: as above; conditions: PC-3 cells, 2 μM docetaxel, 24 hrs
# Protocol: as §1
# (§3) In order to confirm the implication of LIMK1 induced resistance to taxane treatment, the expression of LIMK1 in each cell line was altered. […] Sensitivity to the taxane treatment was monitored by MTS assay.
# as §2
# MCF7 = assay: as above; conditions: MCF7 cells, 2 μM docetaxel, 24 hrs
# Protocol: as §1, §3, §2
# [1] = test system: cleaved caspases 3, cleaved caspases 9 and cleaved PARP; assay: Western blot of apoptotic markers in docetaxel treated cell lysates
# Excerpt: FIG. 5: Higher LIMK1 expression diminished Taxane induced apoptotic response. PC3 cells were transiently transfected with either LIMK1 targeting shRNA construct or scrambled shRNA construct. […] After 24 hrs of DTX treatment, cell were harvested and apoptotic markers were monitored by immunoblot. Cyt c Release: PC3 and MCF7 were transiently transfected with LIMK1 and Scrambled shRNA constructs, P69 cells were transiently transfected with LIMK1 expression vector, LIMK1-shRNA vector or control vector. […] Following treatment cells were harvested and cytosolic, mitochondrial, and nuclear fractions were isolated. Presence of Cyt c in the cytosol was monitored by immunoblot of cytosolic fraction. Densinometry was used to determine relative values.
# Western blots were probed with the following antibodies: mouse anti-human-GAPDH (Sigma); mouse anti-FLAG (Sigma); rabbit anti-human-LIMK1 (Santa Cruz; Santa Cruz, Calif.); mouse anti-human LIMK1 (BD Pharmingen, San Diego, Calif.); rabbit anti-Cleaved Caspase 3/9 and anti-Cleaved PARP (Cell Signaling); rabbit anti-human-alpha-tubulin (Sigma). Mouse anti-Cytochrome c (R&D Systems). Rabbit anti-Prohibitin (Abcam). Rabbit anti-Bax (Santa Cruz). Rabbit anti-Bcl2 (Cell Signaling)
structure (smiles),measurement,setting,value
CC(=O)O[C@@]12CO[C@@H]1C[C@H](O)[C@@]1(C)C(=O)[C@H](O)C3=C(C)[C@@H](OC(=O)[C@H](O)[C@@H](NC(=O)OC(C)(C)C)c4ccccc4)C[C@@](O)([C@@H](OC(=O)c4ccccc4)[C@H]21)C3(C)C [docetaxel],sub-G1 population,MDA-MB-231,25%
same,sub-G1 population,P69,15%
same,sub-G1 population,PC-3,6%
same,sub-G1 population,MCF7,5%
same,cleaved PARP,[1],increased levels
same,cleaved caspases 3,[1],increased levels
same,cleaved caspases 9,[1],increased levels
